The target in this test is T1, factor D (Homo sapiens, UniProt P00746).
T1 construct: made in house; host or cells: E. coli
T1 sequence (P00746 26-253): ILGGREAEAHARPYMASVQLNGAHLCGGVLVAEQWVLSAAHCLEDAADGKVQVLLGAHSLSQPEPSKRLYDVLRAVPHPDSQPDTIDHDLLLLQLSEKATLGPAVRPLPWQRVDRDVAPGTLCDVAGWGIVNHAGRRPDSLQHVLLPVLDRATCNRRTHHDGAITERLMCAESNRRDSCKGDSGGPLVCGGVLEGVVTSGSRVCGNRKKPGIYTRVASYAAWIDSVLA
Description: factor D inhibition assay of Biological Example 2. It counts as biochemical.
In turn, `NCc1cccc(-c2ccc3c(c2)C(Oc2ccccc2CC(=O)O)CC3)c1` (racemic) [Example 162, (±)-2-(2-((6-(3-(Aminomethyl)phenyl)-2,3-dihydro-1H-inden-1-yl)oxy)phenyl)acetic acid] had an IC50 of 0.002 µM.

As to `NC(CF)c1cccc(-c2cccc(COc3ccccc3CC(=O)O)c2)c1` (single isomer, unassigned; (-)) [Example 190-B (−), (−)-2-(2-((3′-(1-amino-2-fluoroethyl)-[1, 1′-biphenyl]-3-yl)methoxy)phenyl)acetic acid], the IC50 is 0.213 µM.

Consider `CCc1ccc(NC(=O)c2cc(NC[C@@H]3CCCO3)cc(-c3cc(F)cc(CN)c3)c2)c(CC(=O)O)c1` [Example 25-D, (S)-2-(2-(3′-(Aminomethyl)-5′-fluoro-5-(((tetrahydrofuran-2-yl)methyl)amino)-[1,1′-biphenyl]-3-ylcarboxamido)-5-ethylphenyl)acetic acid], for which half-maximal inhibition (IC50) required 0.011 µM.

For `NC(=O)Cc1ccccc1OCc1cccc(-c2cccc([C@H](N)CO)c2)c1` [Example 146-C, (S)-2-(2-((3′-(1-Amino-2-hydroxyethyl)-[1,1′-biphenyl]-3-yl)methoxy)phenyl)acetamide], the IC50 was found to be 18.4 µM.

As for `NCc1cc(Cl)cc(-c2cccc(COc3ccccc3CC(=O)O)c2)c1` [Example 291, 2-(2-((3′-(aminomethyl)-5′-chloro-[1,1′-biphenyl]-3-yl)methoxy)phenyl)acetic acid], it took 0.19 µM to reach half-maximal inhibition (IC50).

Regarding `CCc1cc(COc2ccccc2CC(=O)O)cc(-c2cccc(CN)c2)c1` [Example 104, 2-(2-((3′-(aminomethyl)-5-ethyl-[1,1′-biphenyl]-3-yl)methoxy)phenyl)acetic acid], the IC50 turned out to be 0.006 µM.

`CN(C)C(c1cc(COc2ccccc2CC(=O)O)cc(-c2cccc(CN)c2)c1)C(F)(F)F` (stereo not shown) [Example 208-B] returned an IC50 of 0.027 µM.

Take `C[C@@H](N)c1cccc(-c2cc(COc3ccccc3CC(=O)O)cc(NCC3CC3(F)F)c2)c1F` (stereo partly drawn) [Example 281-E, 2-(2-((3′-((R)-1-Aminoethyl)-5-(((2,2-difluorocyclopropyl)methyl)amino)-2′-fluoro-[1,1′-biphenyl]-3-yl)methoxy)phenyl)acetic acid]: the IC50 was found to be 0.014 µM.

The compound `C[C@@H](N)c1cccc(-c2cc(COc3ccccc3CC(=O)O)cc(OC[C@H]3CCCO3)c2)c1F` [Example 232, 2-(2-((3′-((R)-1-aminoethyl)-2′-fluoro-5-(((R)-tetrahydrofuran-2-yl)methoxy)-[1,1′-biphenyl]-3-yl)methoxy)phenyl)acetic acid] displayed an IC50 of 0.002 µM.

As for `C[C@@H](N)c1cccc(-c2cccc(COc3ccccc3CC(=O)O)c2)c1F` [Example 138-L], inhibition was half-maximal at 0.099 µM (IC50).

On to `CC(O)c1cc(COc2ccccc2CC(=O)O)cc(-c2cccc([C@H](C)N)c2)c1` (stereo partly shown) [Example 120-L], for which the IC50 worked out at 0.28 µM.

`CCC[C@@H](N)c1cccc(-c2cc(COc3ccccc3CC(=O)O)cc(-c3cnn(C)c3)c2)c1F` [Example 203, (R)-2-(2-((3′-(1-Aminobutyl)-2′-fluoro-5-(1-methyl-1H-pyrazol-4-yl)-[1,1′-biphenyl]-3-yl)methoxy)phenyl)acetic acid] returned an IC50 of 0.054 µM.

Consider `C[C@@H](N)c1cccc(-c2cc(COc3ccccc3CC(=O)O)cc(NCC(F)F)c2)c1F` [Example 216-M], for which half-maximal inhibition (IC50) was put at 0.013 µM.

Consider `COCCc1cc(COc2ccccc2CC(=O)O)cc(-c2cccc([C@@H](C)N)c2)c1` [Example 120-W], for which the IC50 was 0.013 µM.

For `N[C@H](CO)c1cccc(-c2cc(COc3ccccc3CC(=O)O)cc(C3CC3)c2)c1` [Example 109-B, (S)-2-(2-((3′-(1-Amino-2-hydroxyethyl)-5-cyclopropyl-[1,1′-biphenyl]-3-yl)methoxy)phenyl)acetic acid], the IC50 was determined as 0.022 µM.

`COC(C)c1cc(COc2ccccc2CC(=O)O)cc(-c2cccc([C@H](N)CO)c2)c1` (stereo partly shown) [Example 120-E] displayed an IC50 of 0.017 µM.

As to `Cn1ccc(Nc2cc(C(=O)Nc3ccccc3CC(=O)O)cc(-c3cc(F)cc(CN)c3)c2)n1` [Example 79-C], 0.022 µM corresponded to half-maximal inhibition (IC50).

For `C[C@@H](N)c1cccc(-c2cc(CCCF)cc(COc3ccccc3CC(=O)O)c2)c1` [Example 271, (R)-2-(2-((3′-(1-aminoethyl)-5-(3-fluoropropyl)-[1,1′-biphenyl]-3-yl)methoxy)phenyl)acetic acid], the IC50 is 0.01 µM.

The compound `CNc1sc(-c2cc(F)cc(CN)c2)nc1C(=O)Nc1cc(C)ccc1CC(=O)O` [Example 34-C, 2-(2-(2-(3-(Aminomethyl)-5-fluorophenyl)-5-(methylamino)thiazole-4-carboxamido)-4-methylphenyl)acetic acid] yielded an IC50 of 0.005 µM.

In turn, `NCc1nc(-c2cccc(COc3ccccc3CC(=O)O)c2)cs1` [Example 190-K] had an IC50 of 0.133 µM.

`NCc1cccc(-c2cccc(COc3cc(C(N)=O)ccc3CC(=O)O)c2)c1` [Example 294-C] showed an IC50 of 0.01 µM.

Take `Cc1ccc(S(=O)(=O)n2ncc3c(COc4ccccc4CC(=O)O)cc(-c4cccc(CN)c4)cc32)cc1` [Example 178, 2-(2-((6-(3-(Aminomethyl)phenyl)-1-tosyl-1H-indazol-4-yl)methoxy)phenyl)acetic acid]: the IC50 was 0.002 µM.

The compound `NC1(c2cccc(-c3cccc(C(=O)Nc4ccccc4CC(=O)O)c3)c2)CC1` [Example 92, 2-(2-(3′-(1-Aminocyclopropyl)-[1,1′-biphenyl]-3-ylcarboxamido)phenyl)acetic acid] gave an IC50 of 8.47 µM.

In turn, `NCc1cccc(-c2ccc(F)c(COc3ccccc3CC(=O)O)c2)c1` [Example 166, 2-(2-((3′-(Aminomethyl)-4-fluoro-[1,1′-biphenyl]-3-yl)methoxy)phenyl)acetic acid] registered an IC50 of 0.023 µM.

`NCc1cccc(-c2cccc(COc3cc(C4CC4)ccc3CC(=O)O)c2)c1` [Example 294-A] had an IC50 of 0.009 µM.

Turning to `NCc1ccc(F)c(-c2cccc(C(=O)Nc3ccccc3CC(=O)O)c2)c1` [Example 4-B, 2-(2-(5′-(Aminomethyl)-2′-fluoro-[1,1′-biphenyl]-3-ylcarboxamido)phenyl)acetic acid], half-maximal inhibition (IC50) was put at 4.6 µM.

On to `C[C@@H](N)c1cccc(-c2cc(COc3ccccc3CC(=O)O)cc(C(C)(C)O)c2)c1F` [Example 120-G], for which the IC50 was 0.013 µM.

Regarding `COc1cc(COc2ccccc2CC(=O)O)cc(-c2cccc(CN)c2)c1` [Example 134, 2-(2-((3′-(Aminomethyl)-5-methoxy-[1,1′-biphenyl]-3-yl)methoxy)phenyl)acetic acid], half-maximal inhibition (IC50) was put at 0.013 µM.

`C[C@@H](N)c1cccc(-c2cc(COc3ccccc3CC(=O)O)cc(N(C)CC(F)F)c2)c1F` [Example 216-N] yielded an IC50 of 0.024 µM.

For `N=C(N)c1cccc(-c2cccc(C(=O)Nc3ccccc3CC(=O)O)c2)c1` [Example 10-B, 2-(2-(3′-Carbamimidoyl-[1,1′-biphenyl]-3-ylcarboxamido)phenyl)acetic acid], half-maximal inhibition (IC50) was put at 0.396 µM.

Consider `C[C@@H](N)c1cccc(-c2cc(COc3ccccc3CC(=O)O)cc(COC3CCOc4ccc(Cl)cc43)c2)c1` (stereo partly shown) [Example 120-T], for which the IC50 amounted to 0.008 µM.

On to `C[C@@H](N)c1cccc(-c2cc(NC[C@H]3CCCO3)c3c(c2)C(Oc2ccccc2CC(=O)O)CCC3)c1F` (stereo partly shown) [Example 216-Y], for which the IC50 was found to be 0.019 µM.

The compound `CCOC[C@@H](N)c1cccc(-c2cccc(COc3ccccc3CC(=O)O)c2)c1` [Example 173, (S)-2-(2-((3′-(1-Amino-2-ethoxyethyl)-[1,1′-biphenyl]-3-yl)methoxy)phenyl)acetic acid] registered an IC50 of 0.147 µM.

The compound `NCc1cc(F)cc(-c2cc(OCc3ccncc3)cc(C(=O)Nc3ccccc3CC(=O)O)c2)c1` [Example 65, 2-(2-(3′-(Aminomethyl)-5′-fluoro-5-(pyridin-4-ylmethoxy)-[1,1′-biphenyl]-3-ylcarboxamido)phenyl)acetic acid] registered a concentration for half-maximal inhibition (IC50) of 0.017 µM.

Compound `C[C@@H](N)c1cccc(-c2cc(COc3ccccc3CC(=O)O)cc(OCC3CCCCO3)c2)c1` (stereo partly drawn) [Example 265, 2-(2-((3′-((R)-1-aminoethyl)-5-((tetrahydro-2H-pyran-2-yl)methoxy)-[1,1′-biphenyl]-3-yl)methoxy)phenyl)acetic acid] displayed an IC50 of 0.007 µM.

In turn, `C[C@@H](N)c1cccc(-c2cccc(C(=O)Nc3ccccc3CC(=O)O)c2)c1` [Example 90, (R)-2-(2-(3′-(1-aminoethyl)-[1,1′-biphenyl]-3-ylcarboxamido)phenyl)acetic acid] came in with an IC50 of 0.823 µM.

On to `C[C@@H](N)c1cccc(-c2cc(CO)cc(COc3ccccc3CC(=O)O)c2)c1` [Example 116-A], for which the IC50 was 0.021 µM.

The compound `CCOCc1cc(COc2ccccc2CC(=O)O)cc(-c2cccc([C@@H](C)N)c2)c1` [Example 120-R] yielded an IC50 of 0.05 µM.

With `N[C@H](CO)c1cccc(-c2cccc(COc3ccccc3CC(=O)O)c2)c1Cl` [Example 141-B, (S)-2-(2-((3′-(1-Amino-2-hydroxyethyl)-2′-chloro-[1,1′-biphenyl]-3-yl)methoxy)phenyl)acetic acid], half-maximal inhibition (IC50) required 0.014 µM.

Compound `NC(CF)c1cccc(-c2cc(COc3ccccc3CC(=O)O)cc(NC[C@@H]3CCCO3)c2)c1F` (mixture of isomers) [Example 204-B, 2-(2-((3′-(1-amino-2-fluoroethyl)-2′-fluoro-5-((((S)-tetrahydrofuran-2-yl)methyl)amino)-[1,1′-biphenyl]-3-yl)methoxy)phenyl)acetic acid (mixture of diastereomers)] yielded an IC50 of 0.007 µM.

`COC(C)c1cc(COc2ccccc2CC(=O)O)cc(-c2cccc([C@H](N)CF)c2)c1` (mixture of isomers) [Example 121-C, 2-(2-((3′-((S)-1-Amino-2-fluoroethyl)-5-(1-methoxyethyl)-[1,1′-biphenyl]-3-yl)methoxy)phenyl)acetic acid] had an IC50 of 0.38 µM.

On to `NCc1cccc(-c2cc(COc3ccccc3CC(=O)O)c(F)c(NCC3CCCO3)c2)c1` (racemic) [154-C b), (±)-2-(2-((3′-(aminomethyl)-4-fluoro-5-(((tetrahydrofuran-2-yl)methyl)amino)-[1,1′-biphenyl]-3-yl)methoxy)phenyl)acetic acid], for which the IC50 came to 0.004 µM.

`CC(O)c1cc(COc2ccccc2CC(=O)O)cc(-c2cccc([C@H](C)N)c2F)c1` (stereo partly shown) [Example 120-J] had an IC50 of 0.023 µM.

For the origin of these results see US20160145247A1, “Aminomethyl-Biaryl Derivatives Complement Factor D inhibitors and uses thereof” (NOVARTIS AG, priority 2013, published 2016).
